Test results published in US11884710B2, “Peptide compounds and methods of use in wound healing” (priority 2013, dated 2024).

System: Pseudomonas aeruginosa ATCC 27853
Assay: In vitro bactericidal assay, P. aeruginosa ATCC 27853 (FIGS. 12-14)
Assay type: cell-based
Settings: for activity in in vitro killing assays, in words / reduction of the CFU: FIG. 14; for reduction of the CFU: peptides at 150, 75, 37.5 μg/ml; for reduction of CFU/ml: highest peptide concentration
Description: (§1) Each of the test peptides was used at 25, 12.5 6.25, and 3.12 μM. The gentamicin was used at 4 μg/ml. 1×10^6/ml Pseudomonas aeruginosa ATCC® 27853™ (American Type Culture Collection, Manassas, Va.) were incubated with the peptides, negative buffer control (tryptone saline), and positive control gentamicin for 180 minutes at pH 7.2. 50 μl aliquots were plated out on agar plates and incubated overnight. Colony forming units were counted after overnight incubation and CFU/ml calculated.
as §1, with “12.5,” for “12.5”, “5.5.” for “7.2.”
FIG. 14 is a comparison of bactericidal activity of CAP37 peptides 120-146WR (SEQ ID NO:30), 120-146WH (SEQ ID NO:31), 120-146QR (SEQ ID NO:28), 120-146QH (SEQ ID NO:29), 120-146QR-5RMP (SEQ ID NO:32), and 120-146QH-5RMP (SEQ ID NO:33) for Pseudomonas aeruginosa ATCC® 27853™ (American Type Culture Collection, Manassas, Va.). 1×10^6/ml Pseudomonas aeruginosa ATCC® 27853™ were incubated with the peptides at 150, 75, and 37.5 μg/ml and negative buffer control (tryptone saline) for 180 minutes at pH 5.5. 50 μl aliquots were plated out on agar plates and incubated overnight. Colony forming units were counted after overnight incubation and CFU/ml calculated.
For FIGS. 10-13, in vitro bactericidal assays were performed using a starting inoculum of 1×10^6 CFU/ml of the bacterial suspension. The CFU remaining at the end of the 60-180 minute incubation was determined, and the data was plotted as log reduction in CFU/ml.
In particular, each of the test peptides (CAP37 peptides 120-146WR, 120-146WH, and 95-122 (SEQ ID NOS:30, 31, and 26, respectively)) was used at 25, 12.5, 6.25, and 3.12 μM. Gentamicin was used at 4 μg/ml. 1×10^6/ml Acinetobacter baumannii ATCC® BAA-747™ or Pseudomonas aeruginosa ATCC® 27853™ (American Type Culture Collection, Manassas, Va.) were incubated with the peptides, negative buffer control (tryptone saline), and positive control gentamicin at pH 5.5 or 7.2. A 60 minute incubation was used for Acinetobacter baumannii ATCC® BAA-747™, while a 180 minute incubation was used for Pseudomonas aeruginosa ATCC® 27853™. 50 μl aliquots were plated out on agar plates and incubated overnight. Colony forming units were counted after overnight incubation and CFU/ml calculated.
For FIG. 14, 1×10^6/ml Pseudomonas aeruginosa ATCC® 27853™ were incubated with each of the test peptides (CAP37 peptides 120-146WR, 120-146WH, 120-146QR, 120-146QH, 120-146QR-5RMP, and 120-146QH-5RMP (SEQ ID NOS:30, 31, 28, 29, 32, and 33, respectively)) at 150, 75, and 37.5 μg/ml, or negative buffer control (tryptone saline), for 180 minutes at pH 5.5. 50 μl aliquots were plated out on agar plates and incubated overnight. Colony forming units were counted after overnight incubation and CFU/ml calculated.

[1] = pH 7.2, 180 minutes, 120-146WR/WH at 25 μM, 95-122 at 3.12-25 μM

| Sequence | activity in in vitro killing assays, in words (pH 5.5, 180 minutes) | reduction of the CFU (pH 5.5, 180 minutes) [logs] | bactericidal activity, in words [1] | reduction of CFU/ml (pH 7.2, 180 minutes) [logs] | bactericidal activity, in words (120-146WR at 25 μM, gentamicin 4 μg/ml) | bactericidal activity, in words (pH 5.5, 180 minutes, peptides 3.12-25 μM, gentamicin 4 μg/ml) |
| --- | --- | --- | --- | --- | --- | --- |
| GTRCQVAGWGSWHSGGRLSRFPRFVNV (derivative of peptide of CAP37 protein) [Peptide 120-146WH] | strongly active | 6 | as effective as the standard antibiotic gentamicin | 6 |  |  |
| GTRCQVAGWGSWRSGGRLSRFPRFVNV (derivative of peptide of Homo sapiens CAP37 protein) [Peptide 120-146WR] | strongly active | 6 | as effective as the standard antibiotic gentamicin | 6 | highly active |  |
| LDREANLTSSVTILPLPLQNATVEAGTR (listed as Homo sapiens) [Peptide 95-122] |  |  | not active |  |  | not active |
